Source: patent US4699921A, “Pharmaceuticals containing prostaglandin I2” (Mitsubishi Yuka Pharmaceutical Co., Ltd., priority 1984, dated 1987)
Like-named read-outs stand apart in the source and are kept apart here.

How the values were obtained:
gastric acid secretion = assay: Antiulcer effect (2): rat gastric acid inhibiting effect (pylorus ligature); assay type: in vivo, male Wistar rat; conditions: subcutaneous, 100 μg/kg, 4 hours after pylorus ligature; for Amount of gastric acid secreted: solvent 73.6
Procedure: Male wistar strain rats (weighing 250-280 g) were fasted for 18 hours subjected to peritoneotomy under ether anesthesia for ligature of pylorus, and after 4 hours under abstinence from food and water, gastric juice was sampled. The gastric juice was centrifuged at 3000 rpm for 10 minutes, and then the amount, pH and acidity of the gastric juice were measured. The acidity was measured by titration by means of an automatic titrating device (Toa Denpa Kogyo) with a 0.1N NaOH to pH 7.0 and calculating according to the following formula: [formula]
The gastric juice secretion inhibition percentage was calculated according to the following formula: [formula] A: Amount of gastric acid excreted in Control group B: Amount of gastric acid excreted in Drug group
The drugs to be tested were adminsistered subcutaneously immediately after pylorus ligature.

[1] = tested on: Human platelet aggregation (ADP induced); assay: Human platelet aggregation inhibiting effect (in vitro); assay type: cell-based; conditions: human PRP, ADP 2-10 μM, 37° C., one minute preincubation, read-out: Platelet aggregation inhibiting ratio (IC50)
Procedure: Platelet aggregation inhibiting effect
Bloods were sampled from healthy voluers (22-34 years old) with no administration of drug for 2 weeks or more early in the morning when they were hungry. By use of an injector filled with 5 ml of 3.8% sodium citrate solution, 50 ml of blood was sampled, immediately stirred by turning upside down and centrifuged at 200×g for 15 minutes. The supernatant was separated as the PRP (platelet rich plasma) and the residue further subjected to centrigugation at 2000×g for 15 minutes, followed by recovery of the supernatant as PPP (poor platelet plasma) which was provided for use in the experiment.
PRP (250 μ) was placed in a cuvette, 5 μof an 1% ethanol solution of the compound of the present invention or an 1% ethanol solution was added, and incubation was carried out at 37° C. for one minute. Then, an aggregation inducing agent (ADP) was added and the process of aggregation was recorded by Aggregometer (Sienco Co.). As the concentration of ADP, the minimum concentrations of ADP (2-10 μM) to give the maximum aggregation for respective platelets were employed. The inhibition percentage of platelet aggregation was calculated by the following formula:
Inhibition percentage=(A-B)/A×100
A: Maximum aggregation ratio during addition of solvent (1% ethanol solution)
B: Maximum aggregation ratio during addition of the compound of the present invention.
The platelet aggregation inhibiting effects of the compounds of the present invention are shown in terms of IC50 values in Table 6.

right femoral artery = assay: Vasodilative effect (perfusion pressure of femoral artery in anesthetized dogs); assay type: in vivo, dog; conditions: intraarterial, 100 μg/kg
Procedure: Female and male adult dogs were anesthetized by intraveneous administeration of 30 mg/kg of sodium pentobarbital and fixed on their back positions. The right femoral artery was perfused at constant flow with the dog's own blood by means of a peristaltic pump (Harvard Co.). The perfusion pressure was measured with an electromanometer and systemic blood pressure was measured in the other femoral artery with a pressure transducer. As an anticoagulant, 500 U/kg of heparin sodium was intravenously administered.
The compound of the present invention was dissolved in 10% ethanol-90% physiological salt solution and administered into arterial blood through a thick rubber tube provided in the perfusion circuit. The vasodilative effect of the compound of the present invention is expressed by the change ratio of perfusion pressure after administration into the artery.

blood pressure = assay: Hypotensive effect in anesthetized rats; assay type: in vivo, male Wistar rat; conditions: intravenous, 10 μg/kg
Procedure: Male wistar strain rats (weighing 240-290 g) were anesthetized by intraperitoneal administration of 50 mg/kg of sodium pentobarbital, and blood pressures were measured. The compound of the present invention was administered intravenously as a solution dissolved in 10 ethanol- 90% physiological salt solution. The hypotensive effect is expressed by the percent change of average blood pressure after intravenous administration (relative to that before administration).

gastric mucosa damage = assay: Antiulcer effect (1): inhibition of hydrochloric acid induced gastric mucosa damage; assay type: in vivo, male SD rat; conditions: oral, 25 μg/kg, 30 minutes before 1 ml of 0.6N hydrochloric acid
Procedure: Male SD-strain rats (weighing 220-255 g) were fasted for 20 hours (water was given ad libitum) and, after further abstinence from food and water for 4 hours, the compound of the present invention was administered orally, followed further by oral administration of 1 ml of 0.6N hydrochloric acid 30 minutes later. One hour after administration of hydrochloric acid, the stomach was enucleated under chloroform anesthesia. The fluid in the stomach was discharged and 7.5 ml of a 1% formalin solution was injected into the stomach to fix the gastric mucosa. Then, the stomach was dissected along the greater curvature and the length of the gastric mucosa damage was measured under a steroscopic microscope. The compound of the present invention was dissolved in 5% ethanol-95% physiological salt solution and administered at a dose of 25 μg/kg in a volume of 5 ml/kg.
The antiulcer effect of the compound of the present invention was calculated by the following formula: [formula] l: length of gastric mucosa damage in the group to which the compound of the present invention is administered;
lo: length of gastric mucosa damage in the group of non-administration of drug.

Row | IC50 ([1]; Platelet) [nM] | SMILES | Gastric acid secretion Inhibition (gastric acid secretion) [%] | Amount of gastric acid secreted (gastric acid secretion) [mEq/l] | further results
1 | – | CCCC(C)C[C@H](O)/C=C/[C@H]1[C@H]2CC(C=CCCC(=O)O)=C[C@H]2C[C@H]1O (mixture of isomers) [Compound K, 3-(4'-carboxy-1'-butenyl)-6(S)-(3'(S)-hydroxy-5'(RS)-methyl-trans-1'-octenyl)-7(R)-hydroxy-(1S,5S)-cis-bicyclo[3.3.0]oct-2-ene] | 70.5 | 21.7 | IC50 [1]: 2 nM
2 | – | CCCCC(C)C[C@H](O)/C=C/[C@H]1[C@H]2CC(C=CCCC(=O)O)=C[C@H]2C[C@H]1O (mixture of isomers) [Compound M, 3-(4'-carboxy-1'-butenyl)-6(S)-(3'(S)-hydroxy-5'(RS)-methyl-trans-1'-nonenyl)-7(R)-hydroxy-(1S,5S)-cis-bicyclo[3.3.0]-oct-2-ene] | 73.5 | 19.5 | IC50 [1]: 4 nM
3 | 14 | CCCCC[C@H](O)/C=C/[C@@H]1[C@H]2CC(C=CCCC(=O)O)=C[C@H]2C[C@H]1O [Compound A] | – | – | –
4 | 7 | O=C(O)CCC=CC1=C[C@H]2C[C@@H](O)[C@H](/C=C/[C@@H](O)C3CCCC3)[C@H]2C1 [Compound B] | – | – | –
5 | 0.8 | CC#CCC(C)[C@H](O)/C=C/[C@@H]1[C@H]2CC(C=CCCC(=O)O)=C[C@H]2C[C@H]1O (some centres unmarked) [Compound C] | – | – | –
6 | 20 | CC(C)=CCC[C@@H](C)C[C@H](O)/C=C/[C@@H]1[C@H]2CC(C=CCCC(=O)O)=C[C@H]2C[C@H]1O [Compound D] | – | – | –
7 | 5 | O=C(O)CCC=CC1=C[C@H]2C[C@@H](O)[C@H](/C=C/[C@@H](O)C3CCCCC3)[C@H]2C1 [Compound E] | – | – | –
8 | 4 | CCC#CCC(C)[C@H](O)/C=C/[C@@H]1[C@H]2CC(C=CCCC(=O)O)=C[C@H]2C[C@H]1O (stereo partly drawn) [Compound F, 3-(4'-carboxy-1'-butenyl)-6(S)-(3'(S)-hydroxy-4'(RS)-methyl-trans-1'-nonen-6'-ynyl)-7(R)-hydroxy-(1S,5S)-cis-bicyclo[3.3.0]oct-2-ene] | 81.8 | 13.4 | –
9 | 0.6 | CCC#CC(C)C[C@H](O)/C=C/[C@@H]1[C@H]2CC(C=CCCC(=O)O)=C[C@H]2C[C@H]1O (some centres unmarked) [Compound G] | – | – | –
10 | 8 | CCCCCC(C)[C@H](O)/C=C/[C@@H]1[C@H]2CC(C=CCCC(=O)O)=C[C@H]2C[C@H]1O (stereo partly drawn) [Compound H, 3-(4'-carboxy-1'-butenyl)-6(S)-(3'(S)-hydroxy-4'(RS)-methyl-trans-1'-nonenyl-7(R)-hydroxy-1S,5S)-cis-bicyclo[3.3.0]oct-2-ene] | 89.9 | 7.4 | –
11 | 80 | O=C(O)CCC=CC1=C[C@H]2C[C@@H](O)[C@H](/C=C/[C@@H](O)CCc3ccccc3)[C@H]2C1 [Compound I, 3-(4'-carboxy-1'-butenyl)-6(S)-(3'(S)-hydroxy-5'-phenyl-trans-1'-pentenyl)-7(R)-hydroxy-(1S,5S)-cis-bicyclo[3.3.0]oct-2-ene] | 73.5 | 19.5 | –
12 | 200 | CCCCC(C)(C)[C@H](O)/C=C/[C@@H]1[C@H]2CC(C=CCCC(=O)O)=C[C@H]2C[C@H]1O [Compound J, 3-(4'-carboxy-1'-butenyl)-6(S)-(3'(S)-hydroxy-4',4'-dimethyl-trans-1'-octenyl)-7(R)-hydroxy-(1S,5S)-cis-bicyclo[3.3.0]oct-2-ene] | 18.1 | 60.3 | –
13 | 300 | CC(C1CCCCC1)[C@H](O)/C=C/[C@@H]1[C@H]2CC(C=CCCC(=O)O)=C[C@H]2C[C@H]1O (some centres unmarked) [Compound L] | 36.8 | 46.5 | –
14 | 9 | O=C(O)CCCC=C1C[C@H]2C[C@@H](O)[C@H](/C=C/[C@@H](O)C3CCCC3)[C@H]2C1 [OP-41483] | – | – | Perfusion pressure change (right femoral artery): -16%; Percent change of average blood pressure (blood pressure): -39%; Inhibition of gastric mucosa damage (gastric mucosa damage): -28.3%
15 | – | CCCCC[C@H](O)/C=C/[C@H]1[C@H](O)CC(=O)[C@@H]1C/C=C\CCCC(=O)O [PGE2] | – | – | Inhibition of gastric mucosa damage (gastric mucosa damage): 61.1%
